Data on nine compounds can be found in patent publication US8742117B2, “Oxime derivatives” (Cadila Healthcare Limited, priority 2008, dated 2014).

One assay addresses T1, human GPR 119 receptor (Homo sapiens, UniProt Q8TDV5).
T1 construct: expressed in transfected cells
T1 sequence (Q8TDV5 1-335): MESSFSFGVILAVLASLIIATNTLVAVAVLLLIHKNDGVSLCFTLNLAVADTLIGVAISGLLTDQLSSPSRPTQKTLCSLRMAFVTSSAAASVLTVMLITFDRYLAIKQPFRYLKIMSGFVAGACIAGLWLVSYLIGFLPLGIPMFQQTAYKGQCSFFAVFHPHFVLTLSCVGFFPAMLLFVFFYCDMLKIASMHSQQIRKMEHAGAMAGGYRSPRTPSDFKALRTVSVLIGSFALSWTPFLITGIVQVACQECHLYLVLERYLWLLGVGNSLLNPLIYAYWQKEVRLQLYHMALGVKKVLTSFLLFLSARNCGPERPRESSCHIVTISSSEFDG
Briefly: cAMP assay in stable cell line expressing recombinant human GPR 119 receptor. The class given is cell-based. The following applies: intracellular cAMP, recombinant human GPR 119 cell line. From the text: A stable cell line expressing recombinant human GPR 119 receptor was established and used to investigate the efficacy of the compounds of the invention based on the intracellular levels of cyclic AMP (cAMP) using commercially available cAMP kits. Compounds of the invention produced a concentration dependent increase in cAMP level and EC50 values of representative compounds were provided in table 1 and table 2 respectively.
Background: Changes in cAMP serve as a functional read-out for many G protein-coupled receptors.

The next assay concerns Sprague Dawley rats. Briefly: Feed intake in Sprague Dawley rats. The following applies: 25 mg/kg i.p., cumulative feed intake vs vehicle control. The assay is classed as in vivo, rat. From the text:
In Vivo Efficacy Studies: Feed Intake in Sprague Dawley Rats:
Sprague Dawley rats of 6-8 week age were be used for this experiment they were be kept for acclimatization in reversed light/dark cycle for 15 days. Animals will have free access to a standard chow diet and water during acclimatization period. After 15 days reversed light/dark cycle acclimatization animals were trained for fasting induced feed intake for 5 days till they show consistent feed intake. Grouping was done based on the monitored feed intake the training days. On treatment day each group of animals were dosed with test compound or vehicle by appropriate routes of administration (orally or intraperitoneally). Exactly 30 min. after treatment, measured amount of standard chow diet was provided and recorded as 0-min feed offered. Then subsequently 2, 4, 6 and 24 hour after 0-min, feed intake was measured and the cumulative feed intakes were calculated. The change in cumulative feed intake as compare to vehicle treated control at each time point was calculated for test compound and results were provided in table 2

In the next assay the test system is C57/BL6 mice. Briefly: Oral glucose tolerance test (OGTT) in C57/BL6 mice. The class given is in vivo, mouse. Particulars: 30 mg/kg oral single dose; glucose load 3 gm/kg; serum glucose AUC. How it is done: Oral Glucose Tolerance Tests (OGTT) in C57/BL6 Mice:
C57/BL6 mice of 6-8 week age were used for this experiment. Animals were grouped based on non-fasting serum glucose levels and kept on fasting for overnight (day before OGTT). On the experiment day, each animal received a single dose of vehicle/test compounds (30 mg/kg) were administered orally, 30 min post dosing animals were bled for basal glucose level estimation and at same time glucose load (3 gm/kg) will be administered per orally. Blood was collected at time points corresponding to 20, 40, 60 and 120 min after glucose load administration. Serum was separated for determination of glucose levels and change in area under curve for glucose was calculated and provided in table 3 as % reduction in AUC.

What is called EC50 is the concentration that produces a half-maximal response.

Regarding `CC(=NOc1ncnc(N2CCC(c3nc(C(C)C)no3)CC2)c1C)c1ccc(S(C)(=O)=O)cc1F` [Example 6, 1-(2-fluoro-4-(methylsulfonyl)phenyl)ethanone O-6-(4-(3-isopropyl-1,2,4-oxadiazol-5-yl)piperidin-1-yl)-5-methylpyrimidin-4-yl oxime], at human GPR 119 receptor, the “% activity at 1 μM” value is 49.55%. Besides, in the assay with Sprague Dawley rats, the “% reduction in food in take 2 hour” value was determined as 57%, the “% reduction in food in take 4 hour” value was 52%, the “% reduction in food in take 6 hour” value is 33.3% and the “% reduction in food in take 24 hour” value amounted to 15.1%. For the same compound, the “% reduction in AUC at 30 mg/kg” value in the assay on C57/BL6 mice came to 20%.
As for `CC(=NOc1ncnc(N2CCC(c3nc(C(C)C)no3)CC2)c1[N+](=O)[O-])c1ccc(F)cc1` [Example 9, 1-(4-fluorophenyl)ethanone O-6-(4-(3-isopropyl-1,2,4-oxadiazol-5-yl)piperidin-1-yl)-5-nitropyrimidin-4-yl oxime], on human GPR 119 receptor, the “% activity at 1 μM” value was 104.77% and the EC50 stood at 0.746 µM. In addition, in the assay on Sprague Dawley rats, the “% reduction in food in take 2 hour” value was 41%, the “% reduction in food in take 4 hour” value stood at 31%, the “% reduction in food in take 6 hour” value is listed as 23% and the “% reduction in food in take 24 hour” value amounted to 12%.
With `CC(=NOc1ncnc(N2CCC(c3nc(C(C)C)no3)CC2)c1C)c1ccc2ccccc2c1` [Example 22, 1-(naphthalen-2-yl)ethanone O-6-(4-(3-isopropyl-1,2,4-oxadiazol-5-yl)piperidin-1-yl)-5-methylpyrimidin-4-yl oxime], the “% activity at 1 μM” value at human GPR 119 receptor amounted to 18.5%. In the assay with Sprague Dawley rats, the “% reduction in food in take 2 hour” value is 30%, the “% reduction in food in take 4 hour” value was 43%, the “% reduction in food in take 6 hour” value amounted to 44% and the “% reduction in food in take 24 hour” value is 14%.
As to `CC(=NOc1ncnc(N2CCC(c3nc(C(C)C)no3)CC2)c1C)c1ccc(C(F)(F)F)cc1` [Example 15, 1-(4-(trifluoromethyl)phenyl)ethanone O-6-(4-(3-isopropyl-1,2,4-oxadiazol-5-yl)piperidin-1-yl)-5-methylpyrimidin-4-yl oxime], the “% activity at 1 μM” value at human GPR 119 receptor was determined as 79.21%. In the assay with Sprague Dawley rats, the “% reduction in food in take 2 hour” value was determined as 41%, the “% reduction in food in take 4 hour” value came to 27%, the “% reduction in food in take 6 hour” value is 24% and the “% reduction in food in take 24 hour” value is 11%. Moreover, the “% reduction in AUC at 30 mg/kg” value in the assay on C57/BL6 mice turned out to be 23.4%.
Turning to `CC(=NOc1ncnc(N2CCC(c3nc(C(C)C)no3)CC2)c1[N+](=O)[O-])c1ccc(S(C)(=O)=O)cc1` [Example 11, 1-(4-(methylsulfonyl)phenyl)ethanone O-6-(4-(3-isopropyl-1,2,4-oxadiazol-5-yl)piperidin-1-yl)-5-nitropyrimidin-4-yl oxime], the “% activity at 1 μM” value on human GPR 119 receptor stood at 103.98%. Moreover, in the assay with Sprague Dawley rats, the “% reduction in food in take 2 hour” value stood at 76.2%, the “% reduction in food in take 4 hour” value stood at 43.1%, the “% reduction in food in take 6 hour” value turned out to be 36% and the “% reduction in food in take 24 hour” value was 17%.
Turning to `CC(=NOc1ncnc(N2CCC(c3nc(C(C)C)no3)CC2)c1[N+](=O)[O-])c1ccc(S(C)(=O)=O)cc1F` [Example 14, 1-(2-fluoro-4-(methylsulfonyl)phenyl)ethanone O-6-(4-(3-isopropyl-1,2,4-oxadiazol-5-yl)piperidin-1-yl)-5-nitropyrimidin-4-yl oxime], the “% activity at 1 μM” value on human GPR 119 receptor came out at 89.97%. Also, in the assay with Sprague Dawley rats, the “% reduction in food in take 2 hour” value amounted to 53%, the “% reduction in food in take 4 hour” value is given as 48%, the “% reduction in food in take 6 hour” value was determined as 37% and the “% reduction in food in take 24 hour” value was found to be 16%. Also, the “% reduction in AUC at 30 mg/kg” value with C57/BL6 mice turned out to be 20%.
For `COc1ccc(C(C)=NOc2ncnc(N3CCC(c4nc(C(C)C)no4)CC3)c2[N+](=O)[O-])cc1` [Example 7, 1-(4-methoxyphenyl)ethanone O-6-(4-(3-isopropyl-1,2,4-oxadiazol-5-yl)piperidin-1-yl)-5-nitropyrimidin-4-yl oxime], the “% activity at 1 μM” value on human GPR 119 receptor was 88.99%. Further, in the assay with Sprague Dawley rats, the “% reduction in food in take 2 hour” value came to 53.5%, the “% reduction in food in take 4 hour” value was 42%, the “% reduction in food in take 6 hour” value stood at 36% and the “% reduction in food in take 24 hour” value is 12.9%.
As to `CC(=NOc1ncnc(N2CCC(c3nc(C(C)C)no3)CC2)c1[N+](=O)[O-])c1ccc2c(c1)OCO2` [Example 4, 1-(benzo[d][1,3]dioxol-5-yl)ethanone O-6-(4-(3-isopropyl-1,2,4-oxadiazol-5-yl)piperidin-1-yl)-5-nitropyrimidin-4-yl oxime], the “% activity at 1 μM” value at human GPR 119 receptor amounted to 47.28%. Further, in the assay with Sprague Dawley rats, the “% reduction in food in take 2 hour” value is reported as 45.3%, the “% reduction in food in take 4 hour” value is recorded as 29%, the “% reduction in food in take 6 hour” value turned out to be 14.1% and the “% reduction in food in take 24 hour” value turned out to be 0%.
For `CC(=NOc1ncnc(N2CCC(c3nc(C(C)C)no3)CC2)c1[N+](=O)[O-])c1cccnc1` [Example 10, 1-(pyridin-3-yl)ethanone O-6-(4-(3-isopropyl-1,2,4-oxadiazol-5-yl)piperidin-1-yl)-5-nitropyrimidin-4-yl oxime] the same measures were 31.37%, 38%, 31%, 25.4% and 10%.
